Measurements: PubChem BioAssay AID256 (DTP/NCI, 2004)
Inconclusive results and toxic doses are left out. How the source made its calls: active means survival T/C of 150% or more; inactive means T/C below 125% in these data.

System: CD2F1 mice, L1210 leukemia ip, survival T/C
Test: NCI In Vivo Anticancer Drug Screen. Data for tumor model L1210 Leukemia (intraperitoneal) in CD2F1 (CDF1) mice
Conditions: endpoint: mean survival time, higher = longer survival
Summary of the method: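 Transplantable tumor in mice; compound-treated vs vehicle-treated groups. Read-out = treated/control ratio of the measured endpoint.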

[1] = dose: 100.0 mg/kg/injection, schedule: Q04DX003 (ip), vehicle: saline with Tween-80
[2] = dose: 200.0 mg/kg/injection, schedule: Q04DX003 (ip), vehicle: saline with Tween-80
[3] = dose: 400.0 mg/kg/injection, schedule: Q04DX003 (ip), vehicle: saline with Tween-80
[4] = dose: 100.0 mg/kg/injection, schedule: Q04DX002 (ip), vehicle: saline
[5] = dose: 100.0 mg/kg/injection, schedule: Q01DX009 (ip), vehicle: saline with Tween-80
[6] = dose: 200.0 mg/kg/injection, schedule: Q01DX009 (ip), vehicle: saline with Tween-80
[7] = dose: 400.0 mg/kg/injection, schedule: Q01DX009 (ip), vehicle: saline with Tween-80

Measured: T/C

COc1cc2c(cc1OC)C1CCN3C(=O)CCC3N1CC2 (stereo not given)
inactive: [1] 102 % of control | [2] 102 % of control | [3] 108 % of control

CC(C)C1OCC(C)(C)C(C(C)C)O1 (stereo not given)
inactive: [4] 107 % of control | dose: 200.0 mg/kg/injection, schedule: Q04DX002 (ip), vehicle: saline 110 % of control | dose: 400.0 mg/kg/injection, schedule: Q04DX002 (ip), vehicle: saline 96 % of control

CC(=O)N(c1c(F)c(F)cc(F)c1F)c1c(F)c(F)cc(F)c1F
inactive: [5] 95 % of control | [1] 104 % of control | [6] 103 % of control | [2] 102 % of control | [7] 95 % of control | [3] 98 % of control

NC1CCCCC1CC1CCCCC1 (stereo not given)
inactive: dose: 25.0 mg/kg/injection, schedule: Q01DX009 (ip), vehicle: saline with Tween-80 106 % of control | dose: 25.0 mg/kg/injection, schedule: Q04DX003 (ip), vehicle: saline with Tween-80 97 % of control | dose: 50.0 mg/kg/injection, schedule: Q01DX009 (ip), vehicle: saline with Tween-80 103 % of control | dose: 50.0 mg/kg/injection, schedule: Q04DX003 (ip), vehicle: saline with Tween-80 97 % of control | [5] 95 % of control | [1] 98 % of control

c1ccc(CCNCc2ccccn2)nc1
inactive: dose: 25.0 mg/kg/injection, schedule: Q04DX002 (ip), vehicle: saline 96 % of control | dose: 50.0 mg/kg/injection, schedule: Q04DX002 (ip), vehicle: saline 101 % of control | dose: 100.0 mg/kg/injection, schedule: Q01DX001 (ip), vehicle: saline 94 % of control | [4] 96 % of control

NC(=O)c1cn(C2OC(CO)CC2O)c2ncnc(N)c12 (stereo not given)
inactive: dose: 0.13 mg/kg/injection, schedule: Q01DX009 (ip), vehicle: water 90 % of control | dose: 0.25 mg/kg/injection, schedule: Q01DX009 (ip), vehicle: water 98 % of control | dose: 0.5 mg/kg/injection, schedule: Q01DX009 (ip), vehicle: water 96 % of control | dose: 1.0 mg/kg/injection, schedule: Q01DX009 (ip), vehicle: water 102 % of control | dose: 2.0 mg/kg/injection, schedule: Q01DX009 (ip), vehicle: water 113 % of control | dose: 8.0 mg/kg/injection, schedule: Q01DX009 (ip), vehicle: water 110 % of control | dose: 32.0 mg/kg/injection, schedule: Q01DX009 (ip), vehicle: water 122 % of control

CC(=O)OC1CCC2(C)C(CC=C3C2CCC2(C)C3CCC2C(C)CCCC(C)C)C1 (stereo not given)
inactive: [5] 89 % of control | [6] 89 % of control | [7] 91 % of control

Cc1cc(-c2ccccc2)cc(=O)[nH]1
inactive: dose: 100.0 mg/kg/injection, schedule: Q01DX001 (ip), vehicle: other 92 % of control | dose: 200.0 mg/kg/injection, schedule: Q01DX001 (ip), vehicle: other 92 % of control | dose: 400.0 mg/kg/injection, schedule: Q01DX001 (ip), vehicle: other 91 % of control

CCc1c(Cl)c(C)c(Cl)c(O)c1Cl
inactive: [1] 96 % of control | [2] 88 % of control

CCCCc1ccc2nc(NC(=O)OC)[nH]c2c1
active: [5] 166 % of control
inactive: dose: 6.25 mg/kg/injection, schedule: Q01DX009 (ip), vehicle: saline with Tween-80 107 % of control | dose: 12.5 mg/kg/injection, schedule: Q01DX009 (ip), vehicle: saline with Tween-80 113 % of control | [6] 86 % of control

COc1cc2cc(c1Cl)N(C)C(=O)CC(OC(=O)CC(C)C)C1(C)OC1C(C)C1CC(O)(NC(=O)O1)C(OC)/C=C/C=C(C)C2 (stereo not given)
inactive: dose: 3.8 micrograms/kg/injection, schedule: Q01DX009 (ip), vehicle: saline + alcohol 103 % of control | dose: 7.5 micrograms/kg/injection, schedule: Q01DX009 (ip), vehicle: saline + alcohol 103 % of control | dose: 15.0 micrograms/kg/injection, schedule: Q01DX009 (ip), vehicle: saline + alcohol 112 % of control | dose: 30.0 micrograms/kg/injection, schedule: Q01DX009 (ip), vehicle: saline + alcohol 112 % of control | dose: 60.0 micrograms/kg/injection, schedule: Q01DX009 (ip), vehicle: saline + alcohol 111 % of control

OCc1cc(Cl)cc(Cl)c1O
inactive: dose: 100.0 mg/kg/injection, schedule: Q01DX009 (ip), vehicle: other 93 % of control | dose: 100.0 mg/kg/injection, schedule: Q04DX003 (ip), vehicle: other 92 % of control | dose: 200.0 mg/kg/injection, schedule: Q01DX009 (ip), vehicle: other 93 % of control | dose: 200.0 mg/kg/injection, schedule: Q04DX003 (ip), vehicle: other 92 % of control
